Results as given in ChEMBL document CHEMBL1201861, “Genomics of Drug Sensitity in Cancer screening data, Wellcome Trust Sanger Institute”.

Tests used:
[1] = tested on: TE-441-T; experiment: cells; assay type: functional, cell-based, Homo sapiens; conditions: Homo sapiens, TE-441-T
Description: SANGER: Inhibition of human TE-441-T cell growth in a cell viability assay.

[2] = tested on: NCI-H524; experiment: cells; assay type: functional, cell-based, Homo sapiens; conditions: Homo sapiens, NCI-H524;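 further: growth inhibition of human NCI-H524 cells, read out through a cell viability assay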
Description: SANGER: Inhibition of human NCI-H524 cell growth in a cell viability assay.

[3] = tested on: NCI-H1882; experiment: cells; assay type: functional, cell-based, Homo sapiens; conditions: Homo sapiens, NCI-H1882;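 further: growth inhibition of the cell line, determined with a viability assay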
Description: SANGER: Inhibition of human NCI-H1882 cell growth in a cell viability assay.

[4] = tested on: MONO-MAC-6; experiment: cells; assay type: functional, cell-based, Homo sapiens; conditions: Homo sapiens, MONO-MAC-6;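 further: cell viability assay measuring growth inhibition of human MONO-MAC-6 cells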
Description: SANGER: Inhibition of human MONO-MAC-6 cell growth in a cell viability assay.

[5] = tested on: KMS-12-PE; experiment: cells; assay type: functional, cell-based, Homo sapiens; conditions: Homo sapiens, KMS-12-PE;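 further: growth inhibition of human KMS-12-PE cells, measured with a cell viability assay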
Description: SANGER: Inhibition of human KMS-12-PE cell growth in a cell viability assay.

[6] = tested on: MC-CAR; experiment: cells; assay type: functional, cell-based, Homo sapiens; conditions: Homo sapiens, MC-CAR;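 further: growth inhibition of the human MC-CAR cell line, read out by a cell viability assay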
Description: SANGER: Inhibition of human MC-CAR cell growth in a cell viability assay.

[7] = tested on: NB1; experiment: cells; assay type: functional, cell-based, Homo sapiens; conditions: Homo sapiens, NB1;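 further: reduction of NB1 cell proliferation, read out with a viability assay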
Description: SANGER: Inhibition of human NB1 cell growth in a cell viability assay.

[8] = tested on: Daudi; experiment: cells; assay type: functional, cell-based, Homo sapiens; conditions: Homo sapiens, Daudi;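 further: growth inhibition of Daudi cells, read out by a viability assay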
Description: SANGER: Inhibition of human Daudi cell growth in a cell viability assay.

[9] = tested on: CESS; experiment: SANGER: Inhibition of human CESS cell growth in a cell viability assay.; assay type: functional, cell-based; conditions: Homo sapiens, CESS
[10] = tested on: EHEB; experiment: cells; assay type: functional, cell-based; conditions: Homo sapiens;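 further: growth inhibition of human EHEB cells, read out with a cell viability assay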
Description: SANGER: Inhibition of human EHEB cell growth in a cell viability assay.

[11] = tested on: Raji; experiment: cells; assay type: functional, cell-based, Homo sapiens; conditions: Homo sapiens, Raji;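 further: cell viability assay measuring inhibition of Raji cell growth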
Description: SANGER: Inhibition of human Raji cell growth in a cell viability assay.

[12] = tested on: NCI-H889; experiment: cells; assay type: functional, cell-based, Homo sapiens; conditions: Homo sapiens, NCI-H889;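 further: cell growth inhibition of the cell line, read out with a viability assay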
Description: SANGER: Inhibition of human NCI-H889 cell growth in a cell viability assay.

[13] = tested on: NCI-H64; experiment: cells; assay type: functional, cell-based, Homo sapiens; conditions: Homo sapiens, NCI-H64;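 further: growth inhibition of NCI-H64 cells, read out with a cell viability assay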
Description: SANGER: Inhibition of human NCI-H64 cell growth in a cell viability assay.

[14] = tested on: GDM-1; experiment: cells; assay type: functional, cell-based, Homo sapiens; conditions: Homo sapiens, GDM-1;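 further: cell viability readout used to measure growth inhibition of human GDM-1 cells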
Description: SANGER: Inhibition of human GDM-1 cell growth in a cell viability assay.

[15] = tested on: NALM-6; experiment: cells; assay type: functional, cell-based, Homo sapiens; conditions: Homo sapiens, NALM-6;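 further: growth inhibition of NALM-6 cells, read out with a cell viability assay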
Description: SANGER: Inhibition of human NALM-6 cell growth in a cell viability assay.

[16] = tested on: DMS-153; experiment: cells; assay type: functional, cell-based, Homo sapiens; conditions: Homo sapiens, DMS-153
Description: SANGER: Inhibition of human DMS-153 cell growth in a cell viability assay.

[17] = tested on: DG-75; experiment: cells; assay type: functional, cell-based, Homo sapiens; conditions: Homo sapiens, DG-75;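 further: growth inhibition of DG-75 cells, read out with a cell viability assay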
Description: SANGER: Inhibition of human DG-75 cell growth in a cell viability assay.

[18] = tested on: LCLC-97TM1; experiment: cells; assay type: functional, cell-based; conditions: Homo sapiens;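 further: cell viability assay measuring growth inhibition of human LCLC-97TM1 cells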
Description: SANGER: Inhibition of human LCLC-97TM1 cell growth in a cell viability assay.

[19] = tested on: NCI-H1755; experiment: cells; assay type: functional, cell-based; conditions: Homo sapiens;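 further: cell viability readout used to measure growth inhibition of NCI-H1755 cells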
Description: SANGER: Inhibition of human NCI-H1755 cell growth in a cell viability assay.

[20] = tested on: CAL-120; experiment: cells; assay type: functional, cell-based; conditions: Homo sapiens;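 further: cell growth inhibition, read out as cell viability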
Description: SANGER: Inhibition of human CAL-120 cell growth in a cell viability assay.

[21] = tested on: MCF7; experiment: cells; assay type: functional, cell-based; conditions: Homo sapiens;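 further: growth inhibition of human MCF7 cells, read out with a cell viability assay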
Description: SANGER: Inhibition of human MCF7 cell growth in a cell viability assay.

[22] = tested on: HuCCT-1; experiment: cells; assay type: functional, cell-based, HuCCT1; conditions: Homo sapiens;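 further: growth inhibition of HuCCT-1 cells, read out by a cell viability assay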
Description: SANGER: Inhibition of human HuCCT1 cell growth in a cell viability assay.

[23] = tested on: EFM-19; experiment: cells; assay type: functional, cell-based; conditions: Homo sapiens;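 further: growth inhibition of human EFM-19 cells, measured in a cell viability assay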
Description: SANGER: Inhibition of human EFM-19 cell growth in a cell viability assay.

[24] = tested on: SNU-387; experiment: cells; assay type: functional, cell-based; conditions: Homo sapiens
Description: SANGER: Inhibition of human SNU-387 cell growth in a cell viability assay.

[25] = tested on: UMC-11; experiment: cells; assay type: functional, cell-based; conditions: Homo sapiens;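 further: growth inhibition of UMC-11 cells, read out with a cell viability assay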
Description: SANGER: Inhibition of human UMC-11 cell growth in a cell viability assay.

[26] = tested on: PC-3; experiment: cells; assay type: functional, cell-based; conditions: Homo sapiens
Description: SANGER: Inhibition of human PC-3 cell growth in a cell viability assay.

[27] = tested on: SK-MES-1; experiment: cells; assay type: functional, cell-based; conditions: Homo sapiens;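 further: growth inhibition of human SK-MES-1 cells, read out with a cell viability assay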
Description: SANGER: Inhibition of human SK-MES-1 cell growth in a cell viability assay.

[28] = tested on: KYSE-180; experiment: cells; assay type: functional, cell-based; conditions: Homo sapiens;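 further: growth inhibition of KYSE-180 cells, read out with a cell viability assay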
Description: SANGER: Inhibition of human KYSE-180 cell growth in a cell viability assay.

[29] = tested on: KYSE-70 cell line; experiment: cells; assay type: functional, cell-based; conditions: Homo sapiens;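 further: cell viability assay read-out, with IC50 expressing suppression of KYSE-70 cell growth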
Description: SANGER: Inhibition of human KYSE-70 cell growth in a cell viability assay.

[30] = tested on: U-251; experiment: cells; assay type: functional, cell-based; conditions: Homo sapiens;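 further: growth inhibition of human U-251 cells, read out through a cell viability assay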
Description: SANGER: Inhibition of human U251 cell growth in a cell viability assay.

[31] = tested on: HCC1419; experiment: cells; assay type: functional, cell-based; conditions: Homo sapiens;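 further: growth inhibition of human HCC1419 cells, read out as cell viability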
Description: SANGER: Inhibition of human HCC1419 cell growth in a cell viability assay.

[32] = tested on: ABC-1; experiment: cells; assay type: functional, cell-based; conditions: Homo sapiens;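 further: growth inhibition of human ABC-1 cells, read out by a cell viability assay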
Description: SANGER: Inhibition of human ABC-1 cell growth in a cell viability assay.

[33] = tested on: OVCAR-3; experiment: cells; assay type: functional, cell-based; conditions: Homo sapiens;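 further: growth inhibition of human OVCAR-3 cells, determined by a cell viability assay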
Description: SANGER: Inhibition of human OVCAR-3 cell growth in a cell viability assay.

[34] = tested on: YAPC; experiment: cells; assay type: functional, cell-based; conditions: Homo sapiens;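 further: growth inhibition of YAPC cells, measured with a cell viability assay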
Description: SANGER: Inhibition of human YAPC cell growth in a cell viability assay.

[35] = tested on: KYSE-410; experiment: cells; assay type: functional, cell-based; conditions: Homo sapiens;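 further: growth inhibition of KYSE-410 cells, measured through a cell viability readout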
Description: SANGER: Inhibition of human KYSE-410 cell growth in a cell viability assay.

[36] = tested on: HT-1376; experiment: cells; assay type: functional, cell-based; conditions: Homo sapiens
Description: SANGER: Inhibition of human HT-1376 cell growth in a cell viability assay.

[37] = tested on: MEL-HO; experiment: cells; assay type: functional, cell-based; conditions: Homo sapiens
Description: SANGER: Inhibition of human MEL-HO cell growth in a cell viability assay.

[38] = tested on: A673; experiment: cells; assay type: functional, cell-based; conditions: Homo sapiens;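 further: growth inhibition of human A673 cells, read out through a cell viability assay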
Description: SANGER: Inhibition of human A673 cell growth in a cell viability assay.

[39] = tested on: LCLC-103H cell line; experiment: cells; assay type: functional, cell-based; conditions: Homo sapiens
Description: SANGER: Inhibition of human LCLC-103H cell growth in a cell viability assay.

[40] = tested on: SK-LU-1; experiment: cells; assay type: functional, cell-based; conditions: Homo sapiens;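 further: cell viability assay measuring growth inhibition of human SK-LU-1 cells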
Description: SANGER: Inhibition of human SK-LU-1 cell growth in a cell viability assay.

[41] = tested on: BT-20; experiment: cells; assay type: functional, cell-based; conditions: Homo sapiens;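 further: cell viability assay measuring suppression of growth in human BT-20 cells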
Description: SANGER: Inhibition of human BT-20 cell growth in a cell viability assay.

[42] = tested on: GCT; experiment: cells; assay type: functional, cell-based; conditions: Homo sapiens;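 further: GCT cell line proliferation inhibition, read out with a cell viability assay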
Description: SANGER: Inhibition of human GCT cell growth in a cell viability assay.

[43] = tested on: NCI-H2228; experiment: cells; assay type: functional, cell-based; conditions: Homo sapiens;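 further: growth inhibition of human NCI-H2228 cells, read out by a cell viability assay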
Description: SANGER: Inhibition of human NCI-H2228 cell growth in a cell viability assay.

[44] = tested on: HTC-C3; experiment: cells; assay type: functional, cell-based; conditions: Homo sapiens;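 further: inhibition of cell growth, read out with a cell viability assay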
Description: SANGER: Inhibition of human HTC-C3 cell growth in a cell viability assay.

[45] = tested on: LoVo; experiment: cells; assay type: functional, cell-based; conditions: Homo sapiens;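 further: growth inhibition of human LoVo cells, read out with a cell viability assay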
Description: SANGER: Inhibition of human LoVo cell growth in a cell viability assay.

[46] = tested on: A-427; experiment: cells; assay type: functional, cell-based; conditions: Homo sapiens;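 further: growth inhibition of human A-427 cells, read out by a cell viability assay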
Description: SANGER: Inhibition of human A427 cell growth in a cell viability assay.

[47] = tested on: NCI-H2087; experiment: cells; assay type: functional, cell-based; conditions: Homo sapiens;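 further: growth inhibition determined with a cell viability readout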
Description: SANGER: Inhibition of human NCI-H2087 cell growth in a cell viability assay.

[48] = tested on: P12-Ichikawa; experiment: cells; assay type: functional, cell-based; conditions: Homo sapiens
[49] = tested on: NCI-H2342; experiment: cells; assay type: functional, cell-based; conditions: Homo sapiens;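 further: growth inhibition of the cancer cell line, determined with a cell viability assay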
Description: SANGER: Inhibition of human NCI-H2342 cell growth in a cell viability assay.

[50] = tested on: DoTc2-4510; experiment: cells; assay type: functional, cell-based; conditions: Homo sapiens
[51] = tested on: CAKI-1; experiment: cells; assay type: functional, cell-based; conditions: Homo sapiens;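 further: growth inhibition of CAKI-1 cells, measured by a cell viability assay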
Description: SANGER: Inhibition of human CAKI-1 cell growth in a cell viability assay.

[52] = tested on: NCI-H1793; experiment: cells; assay type: functional, cell-based; conditions: Homo sapiens;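 further: cell growth inhibition, read out by a cell viability assay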
Description: SANGER: Inhibition of human NCI-H1793 cell growth in a cell viability assay.

[53] = tested on: BXPC-3; experiment: cells; assay type: functional, cell-based; conditions: Homo sapiens;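 further: growth inhibition of human BxPC-3 cells, read out by a cell viability assay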
Description: SANGER: Inhibition of human BxPC-3 cell growth in a cell viability assay.

[54] = tested on: SK-OV-3; experiment: cells; assay type: functional, cell-based; conditions: Homo sapiens;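 further: growth inhibition of SK-OV-3 human cells, read out with a cell viability assay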
Description: SANGER: Inhibition of human SK-OV-3 cell growth in a cell viability assay.

Q: What does the source list for `COc1cc(N2CCC(N3CCN(C)CC3)CC2)ccc1Nc1ncc(Cl)c(Nc2ccccc2S(=O)(=O)C(C)C)n1` [TAE-684]?
A: IC50 [1]: > 2000 nM; IC50 [2]: 1640 nM; IC50 [3]: 1240 nM; IC50 [4]: 333 nM; IC50 [5]: > 2000 nM; IC50 [6]: > 2000 nM; IC50 [7]: < 7.81 nM; IC50 [8]: 1790 nM; IC50 [9]: > 2000 nM; IC50 [10]: > 2000 nM; IC50 [11]: > 2000 nM; IC50 [12]: > 2000 nM; IC50 [13]: > 2000 nM; IC50 ([14]; read-out: IC50): 471 nM; IC50 [15]: 907 nM; IC50 [16]: > 2000 nM; IC50 [17]: > 2000 nM

Q: How did the IC50 [18] turn out when `CO[C@@H]1[C@H](N(C)C(=O)c2ccccc2)C[C@H]2O[C@]1(C)n1c3ccccc3c3c4c(c5c6ccccc6n2c5c31)C(=O)NC4` [MIDOSTAURIN] was run?
A: > 512 nM

Q: What about the IC50 [19] of the same compound?
A: 62.7 nM

Q: And the IC50 [20]?
A: 211 nM

Q: What about the IC50 [21] of the same compound?
A: 333 nM

Q: And the IC50 [22]?
A: 179 nM

Q: And the IC50 [23]?
A: 212 nM

Q: What about the IC50 [24] of the same compound?
A: 139 nM

Q: What about the IC50 [9] of the same compound?
A: > 512 nM

Q: And the IC50 [25]?
A: > 512 nM

Q: And the IC50 [26]?
A: > 512 nM

Q: With `COc1ccc(N(C(=O)Oc2c(C)cccc2C)c2ccnc(Nc3ccc(N4CCN(C)CC4)cc3)n2)c(OC)c1` as the compound, how does the IC50 [1] read?
A: > 5120 nM

Q: And the IC50 [2]?
A: > 5120 nM

Q: What about the IC50 [3] of the same compound?
A: > 5120 nM

Q: What about the IC50 [4] of the same compound?
A: > 5120 nM

Q: And the IC50 [5]?
A: > 5120 nM

Q: What about the IC50 [6] of the same compound?
A: > 5120 nM

Q: What about the IC50 [7] of the same compound?
A: > 5120 nM

Q: What about the IC50 [8] of the same compound?
A: 714 nM

Q: And the IC50 [9]?
A: > 5120 nM

Q: What about the IC50 [10] of the same compound?
A: > 5120 nM

Q: And the IC50 [11]?
A: > 5120 nM

Q: What about the IC50 [12] of the same compound?
A: > 5120 nM

Q: What about the IC50 [13] of the same compound?
A: > 5120 nM

Q: What about the IC50 ([14]; read-out: IC50) of the same compound?
A: > 5120 nM

Q: What about the IC50 [15] of the same compound?
A: > 5120 nM

Q: And the IC50 [16]?
A: > 5120 nM

Q: What about the IC50 [17] of the same compound?
A: > 5120 nM

Q: Which results are given for `Cc1ccc(NC(=O)c2ccc(CN3CCN(C)CC3)cc2)cc1Nc1nccc(-c2cccnc2)n1` [IMATINIB]?
A: IC50 [1]: > 2000 nM; IC50 [2]: > 2000 nM; IC50 [3]: > 2000 nM; IC50 [4]: > 2000 nM; IC50 [5]: > 2000 nM; IC50 [6]: > 2000 nM; IC50 [7]: > 2000 nM; IC50 [8]: > 2000 nM; IC50 [9]: > 2000 nM; IC50 [10]: > 2000 nM; IC50 [11]: > 2000 nM; IC50 [12]: > 2000 nM; IC50 [13]: > 2000 nM; IC50 [14]: > 2000 nM; IC50 [15]: > 2000 nM; IC50 [16]: > 2000 nM; IC50 [17]: > 2000 nM

Q: For `CN(C)CCOc1ccc(-c2nc(-c3ccncc3)c(-c3ccc4c(c3)CC/C4=N\O)[nH]2)cc1` [SB590885], which IC50 [27] is on record?
A: > 5000 nM

Q: What about the IC50 [28] of the same compound?
A: > 5000 nM

Q: And the IC50 [29]?
A: > 5000 nM

Q: What about the IC50 [18] of the same compound?
A: > 5000 nM

Q: And the IC50 [30]?
A: > 5000 nM

Q: And the IC50 [31]?
A: > 5000 nM

Q: What about the IC50 [32] of the same compound?
A: > 5000 nM

Q: What about the IC50 [19] of the same compound?
A: > 5000 nM

Q: What about the IC50 [33] of the same compound?
A: > 5000 nM

Q: What about the IC50 [20] of the same compound?
A: > 5000 nM

Q: What about the IC50 [34] of the same compound?
A: > 5000 nM

Q: What about the IC50 [35] of the same compound?
A: > 5000 nM

Q: What about the IC50 [21] of the same compound?
A: > 5000 nM

Q: And the IC50 [22]?
A: > 5000 nM

Q: And the IC50 [23]?
A: > 5000 nM

Q: And the IC50 [24]?
A: > 5000 nM

Q: What about the IC50 [36] of the same compound?
A: > 5000 nM

Q: And the IC50 [37]?
A: 69.3 nM

Q: And the IC50 [38]?
A: > 5000 nM

Q: What about the IC50 [39] of the same compound?
A: > 5000 nM

Q: And the IC50 [40]?
A: > 5000 nM

Q: What about the IC50 [41] of the same compound?
A: > 5000 nM

Q: What about the IC50 [42] of the same compound?
A: > 5000 nM

Q: And the IC50 [43]?
A: > 5000 nM

Q: What about the IC50 [44] of the same compound?
A: > 5000 nM

Q: What about the IC50 [45] of the same compound?
A: > 5000 nM

Q: And the IC50 [46]?
A: > 5000 nM

Q: What about the IC50 [47] of the same compound?
A: > 5000 nM

Q: And the IC50 [48]?
A: 3440 nM

Q: And the IC50 [49]?
A: > 5000 nM

Q: And the IC50 [25]?
A: > 5000 nM

Q: And the IC50 [50]?
A: > 5000 nM

Q: What about the IC50 [51] of the same compound?
A: > 5000 nM

Q: And the IC50 [52]?
A: > 5000 nM

Q: What about the IC50 [53] of the same compound?
A: > 5000 nM

Q: What about the IC50 [54] of the same compound?
A: > 5000 nM

Q: What about the IC50 [26] of the same compound?
A: > 5000 nM
